Experimental findings from US11091482B2, “Isoxazolyl-carbonyloxy azabicyclo[3.2.1]octanyl compounds as FXR activators” (ARDELYX, INC., priority 2016, dated 2021) are described below.

Test [1] has as its target ligand binding domain of human FXR (Homo sapiens (Human), UniProt Q96RI1). Put plainly: FXR ligand binding assay (LanthaScreen FRET).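 As to all read-outs here: TR-FRET coactivator recruitment: ligand-induced binding of fluorescein-labelled SRC2-2 peptide to GST-tagged FXR LBD detected via Tb anti-GST antibody, serial compound dilutions, 3-parameter logistic fit.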 The following applies: for Emax: read-out: % Efficacy; for % Efficacy: extent of activation relative to GW4064. In general terms: TR-FRET usually uses a lanthanide donor and a delayed reading to cut background.
Method: The affinity of FXR ligands for the ligand binding domain of FXR was determined using a commercially available human FXR ligand binding assay (LanthaScreen, Thermofisher Cat #PV4833). […] Binding of FXR ligands to the FXR ligand binding domain promotes binding of the fluorescein-labelled SRC2-2 peptide. This causes a FRET signal between the terbium-labelled anti-GST antibody and the fluorescein-labelled SRC peptide which are both bound to the FXR ligand binding domain.
Test compounds are dissolved in DMSO and a 3-fold serial dilution series is generated, then further diluted into assay buffer. The compounds are mixed with 5 nM GST-tagged FXR ligand binding domain, 5 nM Tb-labelled anti-GST antibody and 500 nM fluorcscein-labelled SRC2-2 peptide in a pH 7.4 buffer. The reaction is incubated at room temperature for 1 hour, then the FRET signal is measured as the ratio of the 520 nm/495 nm emission following excitation at 340 nm. The change in FRET signal is plotted against the test article concentration and fit to a 3-parameter logistical equation.
For test [2], the target named is human Farnesoid X receptor ligand-binding domain/Gal4 DNA binding domain chimera (Homo sapiens (Human), UniProt Q96RI1). Put plainly: Cell-based FXR beta-lactamase reporter assay (FXR-UAS-bla HEK 293T cells). The conditions noted are these: for Emax: HEK-293T, read-out: % Efficacy; for EC50 / FXR pEC50 / % Efficacy: cellular FXR beta-lactamase reporter assay; for EC50 / FXR pEC50: -log EC50; for EC50: read-out: FXR pEC50 (converted); for % Efficacy: extent of activation relative to GW4064. As for the experimental part: FXR activation was measured using a cell line and procedure obtained from Life Technologies (Cat #K1691). FXR-UAS-bla HEK 293T cells contain a human Farnesoid X receptor ligand-binding domain/Gal4 DNA binding domain chimera stably integrated into the CellSensor® UAS-bla HEK 293T cell line. The CellSensor® UAS-bla HEK 293T contains a beta-lactamase reporter gene under control of a UAS response element stably integrated into HEK 293T cells. Activation of FXR by bound ligands results in transcriptional activation of the beta-lactamase reporter gene, which is detected via assay of beta-lactamase activity. Cells are harvested and diluted into assay medium containing phenol red-free DMEM supplemented with 2% Charcoal-stripped FBS, pyruvate, non-essential amino acids. Cells are then transferred to a 384 well assay plate. Test compounds are dissolved in DMSO and a 3-fold serial dilution series is generated, then further diluted into assay medium. […] A FRET-based […] is loaded into cells as its acetomethoxy ester. Intracellular esterases liberate free CCF4, a cephalosporin core linking 7-hydroxycoumarin to fluorescein. In the presence of beta-lactamase activity produced in the presence of FXR agonists, cleavage of CCF4 spatially separates the two dyes and disrupts FRET, so that exciting the coumarin at 409 nm now produces a blue fluorescence signal at 447 nm. The change in FRET signal is plotted against the test compound concentration and fit to a 3-parameter logistical equation.
human Farnesoid X receptor ligand-binding domain/Gal4 DNA binding domain chimera, sequence (Q96RI1 262-486, stated change not applied): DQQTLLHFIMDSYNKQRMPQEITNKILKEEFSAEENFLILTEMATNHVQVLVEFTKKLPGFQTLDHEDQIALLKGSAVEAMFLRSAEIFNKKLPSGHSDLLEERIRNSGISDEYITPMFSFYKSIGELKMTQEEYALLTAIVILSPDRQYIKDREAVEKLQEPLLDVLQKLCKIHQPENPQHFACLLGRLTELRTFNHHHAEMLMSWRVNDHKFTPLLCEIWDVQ
A general note: In a reporter assay the amount or activity of a reporter protein is the signal.

[3] abbreviates: FXR ligand binding assay, -log EC50.

ligand binding domain of human FXR, sequence (Q96RI1 262-486): as the sequence (Q96RI1 262-486, stated change not applied) above

Turning to `CS(=O)(=O)NC(=O)c1cc(F)c2nc(N3[C@@H]4CC[C@H]3C[C@@H](OC(=O)c3c(-c5c(Cl)cccc5Cl)noc3C3CC3)C4)sc2c1` [Compound I-6, (1R,3R,5S)-8-[4-fluoro-6-(methanesulfonylcarbamoyl)-1,3-benzothiazol-2-yl]-8-azabicyclo[3.2.1]octan-3-yl 5-cyclopropyl-3-(2,6-dichlorophenyl)-1,2-oxazole-4-carboxylate], the figures for the Emax in test [1] and in test [2] were 110% and 109%, respectively. The EC50 in test [2] was 0.0158 µM.
`O=C(O)c1cc(F)cc(N2[C@@H]3CC[C@H]2C[C@@H](OC(=O)c2c(-c4c(Cl)cccc4Cl)noc2C2CC2)C3)c1` [Compound I-42, 3-[(1R,3R,5S)-3-[5-cyclopropyl-3-(2,6-dichlorophenyl)-1,2-oxazole-4-carbonyloxy]-8-azabicyclo[3.2.1]octan-8-yl]-5-fluorobenzoic acid]: in test [1] (setting [3]), the “FXR pEC50” value came to 8. Moreover, the Emax in test [1] stood at 38%. Moreover, in test [2], the Emax was 85% and the EC50 was 0.0794 µM.
On to `Cn1cc(C(=O)O)c2ccc(N3[C@@H]4CC[C@H]3C[C@@H](OC(=O)c3c(-c5c(Cl)cccc5Cl)noc3C3CC3)C4)cc21` [Compound I-28, 6-[(1R,3R,5S)-3-[5-cyclopropyl-3-(2,6-dichlorophenyl)-1,2-oxazole-4-carbonyloxy]-8-azabicyclo[3.2.1]octan-8-yl]-1-methyl-1H-indole-3-carboxylic Acid], for which the Emax in test [1] came to 94%. In test [2], the Emax stood at 117% and the EC50 was 0.0251 µM.
For `O=C(O)c1ccc(N2[C@@H]3CC[C@H]2C[C@@H](OC(=O)c2c(-c4c(Cl)cccc4OC(F)F)noc2C2CC2)C3)c(F)c1` [Compound I-43, 4-[(1R,3R,5S)-3-{3-[2-chloro-6-(difluoromethoxy)phenyl]-5-cyclopropyl-1,2-oxazole-4-carbonyloxy}-8-azabicyclo[3.2.1]octan-8-yl]-3-fluorobenzoic Acid], the EC50 is 0.0501 µM in test [1] (FXR ligand binding assay, -log EC50, read-out: FXR pEC50 (converted)) and 0.0398 µM in test [2]. The Emax came to 72% in test [1] and 108% in test [2].
`O=C(O)c1cc(F)c2nc(N3[C@@H]4CC[C@H]3C[C@@H](OC(=O)c3c(-c5c(Cl)cccc5Cl)noc3C3(F)CC3)C4)sc2c1` [Compound I-27, 2-[(1R,3R,5S)-3-[3-(2,6-dichlorophenyl)-5-(1-fluorocyclopropyl)-1,2-oxazole-4-carbonyloxy]-8-azabicyclo[3.2.1]octan-8-yl]-4-fluoro-1,3-benzothiazole-6-carboxylic Acid]: the “FXR pEC50” value was 8.2 in test [1] (setting [3]) and 8.4 in test [2]. Further, the “% Efficacy” value in test [1] (FXR ligand binding assay) worked out at 107%; in test [2], 108%.
For the compound `O=C(O)CNC(=O)c1cc(F)c2nc(N3[C@@H]4CC[C@H]3C[C@@H](OC(=O)c3c(-c5c(Cl)cccc5Cl)noc3C3CC3)C4)sc2c1` [Compound I-4, 2-({2-[(1R,3R,5S)-3-[5-cyclopropyl-3-(2,6-dichlorophenyl)-1,2-oxazole-4-carbonyloxy]-8-azabicyclo[3.2.1]octan-8-yl]-4-fluoro-1,3-benzothiazol-6-yl}formamido)acetic Acid], in test [1], the Emax came to 76%. Moreover, in test [2], the Emax came out at 109% and the EC50 was 0.794 µM.
The like results for `COc1cc(C(=O)O)cc2sc(N3[C@@H]4CC[C@H]3C[C@@H](OC(=O)c3c(-c5c(F)cccc5F)noc3C3CC3)C4)nc12` [Compound I-17, 2-[(1R,3R,5S)-3-[5-cyclopropyl-3-(2,6-difluorophenyl)-1,2-oxazole-4-carbonyloxy]-8-azabicyclo[3.2.1]octan-8-yl]-4-methoxy-1,3-benzothiazole-6-carboxylic Acid] were, in that order, 44%, 112% and 0.126 µM.
The like results for `COc1cc2nc(N3[C@@H]4CC[C@H]3C[C@@H](OC(=O)c3c(-c5c(F)cccc5F)noc3C3CC3)C4)sc2cc1C(=O)O` [Compound I-18, 2-[(1R,3R,5S)-3-[5-cyclopropyl-3-(2,6-difluorophenyl)-1,2-oxazole-4-carbonyloxy]-8-azabicyclo[3.2.1]octan-8-yl]-5-methoxy-1,3-benzothiazole-6-carboxylic Acid] were, in that order, 66%, 99% and 0.251 µM.
The like results for `O=C(O)c1cc(F)cc(S(=O)(=O)N2[C@@H]3CC[C@H]2C[C@@H](OC(=O)c2c(-c4c(Cl)cccc4Cl)noc2C2CC2)C3)c1` [Compound I-56, 3-{[(1R,3R,5S)-3-[5-cyclopropyl-3-(2,6-dichlorophenyl)-1,2-oxazole-4-carbonyloxy]-8-azabicyclo[3.2.1]octan-8-yl]sulfonyl}-5-fluorobenzoic Acid] were, in that order, 56%, 78% and 0.631 µM.
As for `O=C(O)c1cc(F)c2nc(N3[C@@H]4CC[C@H]3C[C@@H](OC(=O)c3c(-c5c(Cl)cccc5OC(F)F)noc3C3CC3)C4)sc2c1` [Compound I-15, 2-[(1R,3R,5S)-3-{3-[2-chloro-6-(difluoromethoxy)phenyl]-5-cyclopropyl-1,2-oxazole-4-carbonyloxy}-8-azabicyclo[3.2.1]octan-8-yl]-4-fluoro-1,3-benzothiazole-6-carboxylic Acid], the “FXR pEC50” value in test [1] (setting [3]) and in test [2] was 7.4 each time. Also, the “% Efficacy” value in test [1] (FXR ligand binding assay) amounted to 71%; in test [2] it was 108%.
For `O=C(O)c1cc(OC(F)(F)F)c2nc(N3[C@@H]4CC[C@H]3C[C@@H](OC(=O)c3c(-c5c(Cl)cccc5Cl)noc3C3CC3)C4)sc2c1` [Compound I-9, 2-[(1R,3R,5S)-3-[5-cyclopropyl-3-(2,6-dichlorophenyl)-1,2-oxazole-4-carbonyloxy]-8-azabicyclo[3.2.1]octan-8-yl]-4-(trifluoromethoxy)-1,3-benzothiazole-6-carboxylic Acid], the Emax in test [1] amounted to 136%. Besides, in test [2], the Emax came to 119% and the EC50 is 0.00316 µM.
For `O=C(NCCS(=O)(=O)O)c1cc(F)c2nc(N3[C@@H]4CC[C@H]3C[C@@H](OC(=O)c3c(-c5c(Cl)cccc5Cl)noc3C3CC3)C4)sc2c1` [Compound I-5, 2-({2-[(1R,3R,5S)-3-[5-cyclopropyl-3-(2,6-dichlorophenyl)-1,2-oxazole-4-carbonyloxy]-8-azabicyclo[3.2.1]octan-8-yl]-4-fluoro-1,3-benzothiazol-6-yl}formamido)ethane-1-sulfonic Acid], in that order: 77%, 72% and 2.51 µM.
In the case of `O=C(O)c1cc(F)c2nc(N3[C@@H]4CC[C@H]3C[C@@H](OC(=O)c3c(-c5c(F)cccc5F)noc3C3CC3)C4)sc2c1` [Compound I-16, 2-[(1R,3R,5S)-3-[5-cyclopropyl-3-(2,6-difluorophenyl)-1,2-oxazole-4-carbonyloxy]-8-azabicyclo[3.2.1]octan-8-yl]-4-fluoro-1,3-benzothiazole-6-carboxylic Acid], the figures for the “FXR pEC50” value in test [1] (setting [3]) and in test [2] were 7.4 and 6.7, respectively. Also, the “% Efficacy” value in test [1] (FXR ligand binding assay) worked out at 47%; in test [2], 110%.
Regarding `CCc1cc(C(=O)O)cc2sc(N3[C@@H]4CC[C@H]3C[C@@H](OC(=O)c3c(-c5c(Cl)cccc5Cl)noc3C3CC3)C4)nc12` [Compound I-60, 2-[(1R,3R,5S)-3-[5-cyclopropyl-3-(2,6-dichlorophenyl)-1,2-oxazole-4-carbonyloxy]-8-azabicyclo[3.2.1]octan-8-yl]-4-ethyl-1,3-benzothiazole-6-carboxylic Acid], in test [1] (setting [3]), the “FXR pEC50” value is 7. Besides, the Emax in test [1] came to 119%. Also, in test [2], the Emax was found to be 104% and the EC50 is 0.00631 µM.
On to `COc1cc2nc(N3[C@@H]4CC[C@H]3C[C@@H](OC(=O)c3c(-c5c(Cl)cccc5Cl)noc3C3CC3)C4)sc2cc1C(=O)O` [Compound I-7, 2-[(1R,3R,5S)-3-[5-cyclopropyl-3-(2,6-dichlorophenyl)-1,2-oxazole-4-carbonyloxy]-8-azabicyclo[3.2.1]octan-8-yl]-5-methoxy-1,3-benzothiazole-6-carboxylic Acid], for which the figures for the Emax in test [1] and in test [2] were 125% and 110%, respectively. The EC50 in test [2] was 0.00794 µM.
Regarding `O=C(NS(=O)(=O)CC1CC1)c1ccc(N2[C@@H]3CC[C@H]2C[C@H](OC(=O)c2c(-c4c(Cl)cccc4Cl)noc2C2CC2)C3)cc1` [Compound I-49, (1R,3S,5S)-8-[4-(cyclopropylmethanesulfonylcarbamoyl)phenyl]-8-azabicyclo[3.2.1]octan-3-yl 5-cyclopropyl-3-(2,6-dichlorophenyl)-1,2-oxazole-4-carboxylate], the “FXR pEC50” value in test [1] (setting [3]) stood at 8; in test [2], 8.1. In addition, the “% Efficacy” value in test [1] (FXR ligand binding assay) is reported as 128%; in test [2] it was 107%.
